Literature values as cited in article PMC9516332 (Frontiers in Oncology, 2022).
Read-outs that look alike come from different tables or passages of the source.

Legend:
Conditions in all cases: cited from earlier work
[1] = target: T1, panel of 255 wild-type kinases (Homo sapiens, UniProt Q16832)
T1 sequence (Q16832 22-855): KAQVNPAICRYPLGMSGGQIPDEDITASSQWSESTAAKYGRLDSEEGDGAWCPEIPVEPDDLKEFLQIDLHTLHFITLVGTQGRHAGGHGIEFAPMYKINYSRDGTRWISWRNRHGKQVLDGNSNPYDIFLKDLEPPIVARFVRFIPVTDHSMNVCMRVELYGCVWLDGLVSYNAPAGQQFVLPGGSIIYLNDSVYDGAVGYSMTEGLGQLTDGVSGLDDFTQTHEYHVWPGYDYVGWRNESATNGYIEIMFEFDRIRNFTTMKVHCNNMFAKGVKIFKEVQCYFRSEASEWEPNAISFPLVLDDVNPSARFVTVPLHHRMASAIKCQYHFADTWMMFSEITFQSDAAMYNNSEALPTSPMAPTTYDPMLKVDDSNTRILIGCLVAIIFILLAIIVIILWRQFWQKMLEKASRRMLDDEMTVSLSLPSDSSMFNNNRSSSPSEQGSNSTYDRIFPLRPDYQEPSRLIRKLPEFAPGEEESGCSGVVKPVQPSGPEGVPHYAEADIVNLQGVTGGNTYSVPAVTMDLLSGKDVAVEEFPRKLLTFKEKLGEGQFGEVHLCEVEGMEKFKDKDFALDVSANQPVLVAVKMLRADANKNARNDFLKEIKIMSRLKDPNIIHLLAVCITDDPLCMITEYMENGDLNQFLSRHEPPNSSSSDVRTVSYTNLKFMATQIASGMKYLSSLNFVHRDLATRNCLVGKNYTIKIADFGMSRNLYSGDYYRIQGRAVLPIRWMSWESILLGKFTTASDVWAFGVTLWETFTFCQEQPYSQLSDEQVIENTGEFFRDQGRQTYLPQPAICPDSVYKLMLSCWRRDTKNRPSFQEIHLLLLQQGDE

[2] = target: T2, panel of 255 wild-type kinases (Homo sapiens, UniProt Q96PN8)
T2 sequence (Q96PN8 1-268): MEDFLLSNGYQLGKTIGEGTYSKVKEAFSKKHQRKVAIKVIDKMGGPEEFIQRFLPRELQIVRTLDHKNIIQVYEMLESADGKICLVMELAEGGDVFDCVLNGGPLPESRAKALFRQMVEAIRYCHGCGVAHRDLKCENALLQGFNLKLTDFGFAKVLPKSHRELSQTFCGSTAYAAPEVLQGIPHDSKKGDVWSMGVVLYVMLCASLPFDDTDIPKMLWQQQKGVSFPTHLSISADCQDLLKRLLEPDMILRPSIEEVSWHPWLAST

[3] = target: panel of 255 wild-type kinases (Homo sapiens, UniProt Q15119)
[4] = target: T3, panel of 255 wild-type kinases (Homo sapiens, UniProt P29322)
T3 sequence (P29322 28-1005): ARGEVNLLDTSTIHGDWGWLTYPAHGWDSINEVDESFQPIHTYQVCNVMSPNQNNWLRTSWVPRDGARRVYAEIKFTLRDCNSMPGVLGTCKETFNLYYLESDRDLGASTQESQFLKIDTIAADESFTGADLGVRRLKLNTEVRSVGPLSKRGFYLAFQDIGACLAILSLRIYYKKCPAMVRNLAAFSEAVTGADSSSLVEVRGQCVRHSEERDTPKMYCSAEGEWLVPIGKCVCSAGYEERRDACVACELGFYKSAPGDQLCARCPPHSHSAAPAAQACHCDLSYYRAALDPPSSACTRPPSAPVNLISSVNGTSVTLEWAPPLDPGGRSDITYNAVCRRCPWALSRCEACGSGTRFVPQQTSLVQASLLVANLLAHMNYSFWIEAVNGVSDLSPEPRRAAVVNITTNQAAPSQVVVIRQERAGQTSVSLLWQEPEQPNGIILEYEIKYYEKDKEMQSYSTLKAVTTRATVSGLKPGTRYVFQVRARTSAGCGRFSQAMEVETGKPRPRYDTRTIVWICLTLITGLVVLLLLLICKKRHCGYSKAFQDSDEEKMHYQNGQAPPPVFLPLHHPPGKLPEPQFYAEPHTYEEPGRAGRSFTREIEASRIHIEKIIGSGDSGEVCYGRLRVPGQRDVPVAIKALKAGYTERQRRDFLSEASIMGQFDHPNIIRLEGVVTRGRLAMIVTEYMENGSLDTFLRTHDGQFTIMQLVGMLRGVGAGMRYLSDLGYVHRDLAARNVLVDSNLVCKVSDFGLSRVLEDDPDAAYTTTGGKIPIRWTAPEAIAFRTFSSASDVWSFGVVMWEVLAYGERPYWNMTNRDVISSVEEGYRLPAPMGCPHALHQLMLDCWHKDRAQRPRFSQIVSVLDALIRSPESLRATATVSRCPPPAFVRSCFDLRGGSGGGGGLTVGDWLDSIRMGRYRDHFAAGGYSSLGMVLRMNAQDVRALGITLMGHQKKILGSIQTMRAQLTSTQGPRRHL

[5] = target: panel of 255 wild-type kinases (Homo sapiens, UniProt P04626)
[6] = kinase DDR2, 1 µmol/L single concentration, ref DOI: 10.1158/1535-7163.MCT-18-0877
[7] = kinase TSSK3, 1 µmol/L single concentration, ref DOI: 10.1158/1535-7163.MCT-18-0877
[8] = kinase PDHK2, 1 µmol/L single concentration, ref DOI: 10.1158/1535-7163.MCT-18-0877
[9] = kinase EPHA8, 1 µmol/L single concentration, ref DOI: 10.1158/1535-7163.MCT-18-0877
[10] = kinase HER2, 1 µmol/L single concentration, ref DOI: 10.1158/1535-7163.MCT-18-0877
[11] = kinase DDR2, 1 µmol/L single concentration, ref DOI: 10.1371/journal.pone.0092146
[12] = kinase TSSK3, 1 µmol/L single concentration, ref DOI: 10.1371/journal.pone.0092146
[13] = kinase PDHK2, 1 µmol/L single concentration, ref DOI: 10.1371/journal.pone.0092146
[14] = kinase EPHA8, 1 µmol/L single concentration, ref DOI: 10.1371/journal.pone.0092146
[15] = kinase HER2, 1 µmol/L single concentration, ref DOI: 10.1371/journal.pone.0092146

Structure (SMILES)	%-inhibition at 1 µmol/L, DDR2 [1, 6] [%]	%-inhibition at 1 µmol/L, TSSK3 [2, 7] [%]	%-inhibition at 1 µmol/L, PDHK2 [3, 8] [%]	%-inhibition at 1 µmol/L, EPHA8 [4, 9] [%]	%-inhibition at 1 µmol/L, HER2 [5, 10] [%]	%-inhibition at 1 µmol/L, DDR2 [1, 11] [%]	%-inhibition at 1 µmol/L, TSSK3 [2, 12] [%]	%-inhibition at 1 µmol/L, PDHK2 [3, 13] [%]	%-inhibition at 1 µmol/L, EPHA8 [4, 14] [%]	further results
O=C(c1ccc(F)c(F)c1Nc1ccc(I)cc1F)N1CC(O)([C@@H]2CCCCN2)C1 [cobimetinib]	0.567	-5	-0.379	-5.33	-1.21					
CC(C)(C)c1nc(-c2cccc(NS(=O)(=O)c3c(F)cccc3F)c2F)c(-c2ccnc(N)n2)s1 [dabrafenib]						100	-8	0.108	35	%-inhibition at 1 µmol/L, HER2 [5, 15]: 50%
Cc1cc(Nc2ncc(Cl)c(Nc3ccccc3S(=O)(=O)C(C)C)n2)c(OC(C)C)cc1C1CCNCC1 [ceritinib]	12	8	-1.41	6	9					
CCc1cc2c(cc1N1CCC(N3CCOCC3)CC1)C(C)(C)c1[nH]c3cc(C#N)ccc3c1C2=O [alectinib]	8	-3.58	0.393	12	-1.77					
CCCS(=O)(=O)Nc1ccc(F)c(C(=O)c2c[nH]c3ncc(-c4ccc(Cl)cc4)cc23)c1F [vemurafenib]						69	-3.19	3.73	7	%-inhibition at 1 µmol/L, HER2 [5, 15]: 2%
COc1cc(N2CCC(N3CCN(C)CC3)CC2)ccc1Nc1ncc(Cl)c(Nc2ccccc2P(C)(C)=O)n1 [brigatinib]										%-inhibition at 1 µmol/L, DDR2 [1]: 60%; %-inhibition at 1 µmol/L, TSSK3 [2]: 3%; %-inhibition at 1 µmol/L, PDHK2 [3]: 2%; %-inhibition at 1 µmol/L, EPHA8 [4]: 6.55%; %-inhibition at 1 µmol/L, HER2 [5]: 69%
CC(=O)Nc1cccc(-n2c(=O)n(C3CC3)c(=O)c3c(Nc4ccc(I)cc4F)n(C)c(=O)c(C)c32)c1 [trametinib]						0.612	-8	-0.542	-8	%-inhibition at 1 µmol/L, HER2 [5, 15]: -5.36%
CC#CC(=O)N1CCC[C@H]1c1nc(-c2ccc(C(=O)Nc3ccccn3)cc2)c2c(N)nccn12 [acalabrutinib]	6	-8	0.164	6.51	16					
C=CC(=O)Nc1cc(Nc2nccc(-c3cn(C)c4ccccc34)n2)c(OC)cc1N(C)CCN(C)C [osimertinib]	25	-0.941	-2	-8	100					
CO[C@@H]1[C@H](N(C)C(=O)c2ccccc2)C[C@H]2O[C@]1(C)n1c3ccccc3c3c4c(c5c6ccccc6n2c5c31)C(=O)NC4 [midostaurin]	97	-2.3	-1.18	6.51	63					
C=CC(=O)N1CCC[C@@H](n2nc(-c3ccc(Oc4ccccc4)cc3)c3c(N)ncnc32)C1 [ibrutinib]	17	-4	-1.08	55	100					
C[C@@H](Oc1cc(-c2cnn(C3CCNCC3)c2)cnc1N)c1c(Cl)ccc(F)c1Cl [crizotinib]						88	-0.601	-3.51	82	%-inhibition at 1 µmol/L, HER2 [5]: -0.714%
